How the values were obtained:
Assay in all cases: Apparent affinity (EC50) of energy transfer probes by titration onto live HEK293 cells expressing kinase/Nluc fusions (Table S1)
Type in all cases: binding
[1] = target: full-length kinase/Nluc fusion proteins (Homo sapiens, UniProt Q13882); conditions: PTK6, Nluc C; read-out: Probe EC50
[2] = target: full-length kinase/Nluc fusion proteins (Homo sapiens, UniProt P07948); conditions: LYN, Nluc C; read-out: Probe EC50
[3] = target: full-length kinase/Nluc fusion proteins (Homo sapiens, UniProt Q9H0K1); conditions: SNF1LK2 (NP_056006), Nluc orientation N; read-out: Probe EC50
[4] = target: full-length kinase/Nluc fusion proteins (Homo sapiens, UniProt P42681); conditions: TXK (NP_003319), Nluc orientation C; read-out: Probe EC50
[5] = target: full-length kinase/Nluc fusion proteins (Homo sapiens, UniProt P07947); conditions: YES1 (NP_005424), Nluc orientation C; read-out: Probe EC50
[6] = target: full-length kinase/Nluc fusion proteins (Homo sapiens, UniProt P53671); conditions: LIMK2, Nluc C; read-out: Probe EC50
[7] = target: full-length kinase/Nluc fusion proteins (Homo sapiens, UniProt O15197); conditions: EPHB6, Nluc C; read-out: Probe EC50
[8] = target: full-length kinase/Nluc fusion proteins (Homo sapiens, UniProt Q08345); conditions: DDR1, Nluc C; read-out: Probe EC50
[9] = target: full-length kinase/Nluc fusion proteins (Homo sapiens, UniProt Q15569); conditions: TESK1 (NP_006276), Nluc orientation N; read-out: Probe EC50
[10] = target: full-length kinase/Nluc fusion proteins (Homo sapiens, UniProt P42685); conditions: FRK, Nluc C; read-out: Probe EC50
[11] = target: full-length kinase/Nluc fusion proteins (Homo sapiens, UniProt O14965); conditions: AURKA, Nluc C; read-out: Probe EC50
[12] = target: full-length kinase/Nluc fusion proteins (Homo sapiens, UniProt Q13043); conditions: STK4 (NP_006273), Nluc orientation N; read-out: Probe EC50
[13] = target: full-length kinase/Nluc fusion proteins (Homo sapiens, UniProt P35590); conditions: TIE1 (NP_005415), Nluc orientation C; read-out: Probe EC50
[14] = target: full-length kinase/Nluc fusion proteins (Homo sapiens, UniProt P54646); conditions: PRKAA2, Nluc N; read-out: Probe EC50
[15] = target: full-length kinase/Nluc fusion proteins (Homo sapiens, UniProt Q9HAZ1); conditions: CLK4, Nluc C; read-out: Probe EC50
[16] = target: full-length kinase/Nluc fusion proteins (Homo sapiens, UniProt Q15375); conditions: EPHA7, Nluc C; read-out: Probe EC50
[17] = target: full-length kinase/Nluc fusion proteins (Homo sapiens, UniProt O00444); conditions: PLK4, Nluc N; read-out: Probe EC50
[18] = target: full-length kinase/Nluc fusion proteins (Homo sapiens, UniProt P28482); conditions: MAPK1, Nluc N; read-out: Probe EC50
[19] = target: full-length kinase/Nluc fusion proteins (Homo sapiens, UniProt Q13131); conditions: PRKAA1, Nluc N; read-out: Probe EC50
[20] = target: full-length kinase/Nluc fusion proteins (Homo sapiens, UniProt Q13237); conditions: PRKG2, Nluc C; read-out: Probe EC50
[21] = target: full-length kinase/Nluc fusion proteins (Homo sapiens, UniProt P29597); conditions: TYK2 (NP_003322), Nluc orientation C; read-out: Probe EC50
[22] = target: full-length kinase/Nluc fusion proteins (Homo sapiens, UniProt Q16816); conditions: PHKG1, Nluc N; read-out: Probe EC50
[23] = target: full-length kinase/Nluc fusion proteins (Homo sapiens, UniProt P33981); conditions: TTK (NP_003309), Nluc orientation C; read-out: Probe EC50
[24] = target: full-length kinase/Nluc fusion proteins (Homo sapiens, UniProt Q9H1R3); conditions: MYLK2, Nluc C; read-out: Probe EC50
[25] = target: full-length kinase/Nluc fusion proteins (Homo sapiens, UniProt Q15418); conditions: RPS6KA1 (NP_002944), Nluc orientation N; read-out: Probe EC50
[26] = target: full-length kinase/Nluc fusion proteins (Homo sapiens, UniProt P49760); conditions: CLK2, Nluc C; read-out: Probe EC50
[27] = target: full-length kinase/Nluc fusion proteins (Homo sapiens, UniProt P29376); conditions: LTK, Nluc C; read-out: Probe EC50
[28] = target: full-length kinase/Nluc fusion proteins (Homo sapiens, UniProt O75716); conditions: STK16 (NP_001317142), Nluc orientation N; read-out: Probe EC50
[29] = target: full-length kinase/Nluc fusion proteins (Homo sapiens, UniProt P30291); conditions: WEE1 (NP_003381), Nluc orientation C; read-out: Probe EC50
[30] = target: full-length kinase/Nluc fusion proteins (Homo sapiens, UniProt Q92630); conditions: DYRK2, Nluc C; read-out: Probe EC50
[31] = target: full-length kinase/Nluc fusion proteins (Homo sapiens, UniProt Q9Y6R4); conditions: MAP3K4, Nluc C; read-out: Probe EC50
[32] = target: full-length kinase/Nluc fusion proteins (Homo sapiens, UniProt Q5S007); conditions: LRRK2, Nluc C; read-out: Probe EC50

Sequence of full-length kinase/Nluc fusion proteins (Homo sapiens, UniProt P53671) (P53671 whole entry, the tested form may be a part): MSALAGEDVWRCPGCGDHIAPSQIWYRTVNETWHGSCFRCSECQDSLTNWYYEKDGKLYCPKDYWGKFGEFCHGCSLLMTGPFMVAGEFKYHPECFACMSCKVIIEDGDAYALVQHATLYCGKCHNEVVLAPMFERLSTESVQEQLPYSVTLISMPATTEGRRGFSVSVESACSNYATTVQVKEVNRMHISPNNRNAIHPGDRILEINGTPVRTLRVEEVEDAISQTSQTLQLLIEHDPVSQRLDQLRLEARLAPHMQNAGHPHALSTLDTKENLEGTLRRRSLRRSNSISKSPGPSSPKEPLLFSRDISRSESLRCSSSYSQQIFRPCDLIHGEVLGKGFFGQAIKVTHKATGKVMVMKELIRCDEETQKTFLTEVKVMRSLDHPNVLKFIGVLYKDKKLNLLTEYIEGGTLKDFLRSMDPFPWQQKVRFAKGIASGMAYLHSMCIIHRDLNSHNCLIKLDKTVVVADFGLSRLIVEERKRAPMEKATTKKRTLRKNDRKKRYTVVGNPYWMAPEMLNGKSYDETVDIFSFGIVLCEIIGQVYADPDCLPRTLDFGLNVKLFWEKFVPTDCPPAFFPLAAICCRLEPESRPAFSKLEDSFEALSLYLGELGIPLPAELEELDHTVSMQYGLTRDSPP
Sequence of full-length kinase/Nluc fusion proteins (Homo sapiens, UniProt Q9HAZ1) (Q9HAZ1 whole entry, the tested form may be a part): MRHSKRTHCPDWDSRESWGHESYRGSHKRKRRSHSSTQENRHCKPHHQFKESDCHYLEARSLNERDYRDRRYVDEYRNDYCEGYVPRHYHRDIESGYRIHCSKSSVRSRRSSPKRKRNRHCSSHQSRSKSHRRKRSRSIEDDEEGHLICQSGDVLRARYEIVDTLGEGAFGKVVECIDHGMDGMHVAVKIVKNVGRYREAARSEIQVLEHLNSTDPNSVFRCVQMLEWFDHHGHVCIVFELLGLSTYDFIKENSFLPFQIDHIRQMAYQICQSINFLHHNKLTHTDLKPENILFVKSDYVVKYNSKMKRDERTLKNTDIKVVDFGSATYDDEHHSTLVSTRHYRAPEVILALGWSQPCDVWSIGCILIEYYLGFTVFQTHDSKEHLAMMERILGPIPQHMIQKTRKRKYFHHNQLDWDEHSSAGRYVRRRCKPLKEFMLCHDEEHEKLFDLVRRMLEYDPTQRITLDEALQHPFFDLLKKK
Sequence of full-length kinase/Nluc fusion proteins (Homo sapiens, UniProt P33981) (P33981 whole entry, the tested form may be a part): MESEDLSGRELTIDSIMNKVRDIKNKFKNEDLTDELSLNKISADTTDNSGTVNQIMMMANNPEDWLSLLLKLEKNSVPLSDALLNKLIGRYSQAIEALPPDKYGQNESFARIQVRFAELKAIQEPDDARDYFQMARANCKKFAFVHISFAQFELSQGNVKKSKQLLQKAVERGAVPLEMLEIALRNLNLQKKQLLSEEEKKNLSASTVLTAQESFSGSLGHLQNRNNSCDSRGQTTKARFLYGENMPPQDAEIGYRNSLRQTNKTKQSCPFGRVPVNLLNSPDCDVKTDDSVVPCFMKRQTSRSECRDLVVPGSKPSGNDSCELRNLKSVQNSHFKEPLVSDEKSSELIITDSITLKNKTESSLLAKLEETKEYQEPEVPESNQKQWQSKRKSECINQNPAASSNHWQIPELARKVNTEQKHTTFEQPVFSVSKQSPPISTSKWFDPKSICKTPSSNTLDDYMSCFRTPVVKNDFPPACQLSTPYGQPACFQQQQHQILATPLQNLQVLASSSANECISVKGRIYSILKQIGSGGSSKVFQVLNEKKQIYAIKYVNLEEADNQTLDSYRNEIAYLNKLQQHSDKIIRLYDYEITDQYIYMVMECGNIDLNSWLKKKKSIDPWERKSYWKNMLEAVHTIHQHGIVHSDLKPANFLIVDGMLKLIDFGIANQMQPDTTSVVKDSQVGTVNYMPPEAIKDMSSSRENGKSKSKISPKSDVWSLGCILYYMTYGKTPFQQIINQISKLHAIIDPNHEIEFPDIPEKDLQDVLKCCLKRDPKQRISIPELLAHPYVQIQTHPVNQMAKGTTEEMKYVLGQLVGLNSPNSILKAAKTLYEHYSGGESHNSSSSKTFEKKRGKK
Sequence of full-length kinase/Nluc fusion proteins (Homo sapiens, UniProt P07948) (P07948 whole entry, the tested form may be a part): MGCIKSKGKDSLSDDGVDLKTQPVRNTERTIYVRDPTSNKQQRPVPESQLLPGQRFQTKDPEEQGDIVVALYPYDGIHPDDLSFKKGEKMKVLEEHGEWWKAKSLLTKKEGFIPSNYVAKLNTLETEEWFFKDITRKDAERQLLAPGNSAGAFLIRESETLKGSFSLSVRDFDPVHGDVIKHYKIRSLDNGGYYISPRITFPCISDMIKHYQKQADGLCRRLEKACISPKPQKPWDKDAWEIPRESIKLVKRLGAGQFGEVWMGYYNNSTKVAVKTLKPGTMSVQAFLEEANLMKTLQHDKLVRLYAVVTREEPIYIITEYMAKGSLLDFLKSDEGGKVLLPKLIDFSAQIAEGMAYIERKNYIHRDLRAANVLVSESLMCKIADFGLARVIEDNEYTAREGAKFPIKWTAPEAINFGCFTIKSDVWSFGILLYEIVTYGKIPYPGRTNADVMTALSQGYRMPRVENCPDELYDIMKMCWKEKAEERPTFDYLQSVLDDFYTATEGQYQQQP
Sequence of full-length kinase/Nluc fusion proteins (Homo sapiens, UniProt Q13237) (Q13237 whole entry, the tested form may be a part): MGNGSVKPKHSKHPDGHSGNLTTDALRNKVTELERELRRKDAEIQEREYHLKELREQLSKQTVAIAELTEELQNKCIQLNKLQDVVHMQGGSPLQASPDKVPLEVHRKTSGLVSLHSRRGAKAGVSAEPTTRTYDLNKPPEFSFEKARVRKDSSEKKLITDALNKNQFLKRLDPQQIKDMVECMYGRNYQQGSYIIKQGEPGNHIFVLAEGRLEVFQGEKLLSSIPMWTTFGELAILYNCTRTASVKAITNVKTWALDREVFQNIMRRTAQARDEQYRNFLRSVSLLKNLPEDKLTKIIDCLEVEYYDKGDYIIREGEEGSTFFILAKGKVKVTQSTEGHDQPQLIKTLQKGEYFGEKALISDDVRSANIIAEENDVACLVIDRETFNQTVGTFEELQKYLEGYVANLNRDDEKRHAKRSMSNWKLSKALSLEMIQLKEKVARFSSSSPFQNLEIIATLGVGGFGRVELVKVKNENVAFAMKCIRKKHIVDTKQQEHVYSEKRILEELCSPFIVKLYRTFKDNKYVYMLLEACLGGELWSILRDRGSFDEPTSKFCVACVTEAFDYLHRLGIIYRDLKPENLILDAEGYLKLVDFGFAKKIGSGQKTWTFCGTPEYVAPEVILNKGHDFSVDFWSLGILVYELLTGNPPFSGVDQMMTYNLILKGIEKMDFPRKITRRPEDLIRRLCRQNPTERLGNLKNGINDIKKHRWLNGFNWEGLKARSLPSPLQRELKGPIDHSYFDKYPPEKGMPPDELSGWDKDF
Sequence of full-length kinase/Nluc fusion proteins (Homo sapiens, UniProt P30291) (P30291 whole entry, the tested form may be a part): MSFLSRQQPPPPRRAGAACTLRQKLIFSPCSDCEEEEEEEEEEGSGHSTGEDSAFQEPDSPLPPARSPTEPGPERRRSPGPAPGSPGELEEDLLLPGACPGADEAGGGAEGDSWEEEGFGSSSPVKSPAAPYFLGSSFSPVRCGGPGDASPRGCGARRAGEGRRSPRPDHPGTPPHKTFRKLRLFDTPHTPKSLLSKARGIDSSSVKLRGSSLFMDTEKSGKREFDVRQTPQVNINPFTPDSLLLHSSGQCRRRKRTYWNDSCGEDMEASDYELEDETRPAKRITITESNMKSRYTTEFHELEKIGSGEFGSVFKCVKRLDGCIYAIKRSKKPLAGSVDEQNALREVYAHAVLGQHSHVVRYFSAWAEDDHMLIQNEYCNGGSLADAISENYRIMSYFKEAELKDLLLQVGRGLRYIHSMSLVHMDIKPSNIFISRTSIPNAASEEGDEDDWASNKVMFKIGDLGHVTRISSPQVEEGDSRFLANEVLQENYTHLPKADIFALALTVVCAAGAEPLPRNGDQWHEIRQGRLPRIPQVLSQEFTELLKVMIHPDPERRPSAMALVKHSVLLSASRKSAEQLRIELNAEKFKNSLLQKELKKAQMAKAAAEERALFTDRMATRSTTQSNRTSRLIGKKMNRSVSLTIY
Sequence of full-length kinase/Nluc fusion proteins (Homo sapiens, UniProt Q15418) (Q15418 whole entry, the tested form may be a part): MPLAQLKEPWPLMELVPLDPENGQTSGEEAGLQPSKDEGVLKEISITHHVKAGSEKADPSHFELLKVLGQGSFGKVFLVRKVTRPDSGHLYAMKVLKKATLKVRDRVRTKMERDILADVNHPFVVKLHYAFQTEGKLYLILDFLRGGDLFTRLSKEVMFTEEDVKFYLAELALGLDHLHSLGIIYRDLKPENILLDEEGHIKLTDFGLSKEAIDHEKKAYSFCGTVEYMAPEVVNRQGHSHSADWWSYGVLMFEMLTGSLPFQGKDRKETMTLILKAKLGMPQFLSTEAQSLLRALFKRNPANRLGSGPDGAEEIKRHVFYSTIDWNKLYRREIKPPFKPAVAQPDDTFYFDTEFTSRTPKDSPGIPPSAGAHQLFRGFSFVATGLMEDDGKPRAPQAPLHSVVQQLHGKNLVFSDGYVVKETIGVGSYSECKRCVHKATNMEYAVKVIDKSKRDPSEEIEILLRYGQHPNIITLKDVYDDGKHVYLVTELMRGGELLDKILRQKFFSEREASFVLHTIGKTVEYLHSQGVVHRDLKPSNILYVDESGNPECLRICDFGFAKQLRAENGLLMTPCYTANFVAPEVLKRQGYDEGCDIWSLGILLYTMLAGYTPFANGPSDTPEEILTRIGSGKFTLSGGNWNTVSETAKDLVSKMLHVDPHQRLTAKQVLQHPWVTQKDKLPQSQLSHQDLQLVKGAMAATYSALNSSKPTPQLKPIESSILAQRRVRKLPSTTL
Sequence of full-length kinase/Nluc fusion proteins (Homo sapiens, UniProt Q16816) (Q16816 whole entry, the tested form may be a part): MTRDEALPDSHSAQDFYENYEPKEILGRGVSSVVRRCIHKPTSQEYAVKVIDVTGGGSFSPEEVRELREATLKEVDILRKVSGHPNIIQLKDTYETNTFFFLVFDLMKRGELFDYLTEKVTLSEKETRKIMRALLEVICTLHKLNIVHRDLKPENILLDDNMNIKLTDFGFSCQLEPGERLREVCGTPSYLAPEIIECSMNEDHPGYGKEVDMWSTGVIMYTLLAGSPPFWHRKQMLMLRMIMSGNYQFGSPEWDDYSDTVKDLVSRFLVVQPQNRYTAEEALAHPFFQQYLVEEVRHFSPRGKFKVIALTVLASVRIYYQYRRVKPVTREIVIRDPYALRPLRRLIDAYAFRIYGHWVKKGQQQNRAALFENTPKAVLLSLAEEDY

In the case of Cc1nc(Nc2ncc(C(=O)Nc3c(C)cccc3Cl)s2)cc(N2CCN(CCOCCNC(=O)CCc3ccc4n3[B-](F)(F)[N+]3=C(c5ccc[nH]5)C=CC3=C4)CC2)n1 [Energy Transfer Probe 6, 2-((6-(4-(2-(2-aminoethoxy)ethyl)piperazin-1-yl)-2-methylpyrimidin-4-yl)amino)-N-(2-chloro-6-methylphenyl)thiazole-5-carboxamide-NanoBRET 590], the EC50 [1] is reported as 0.2 µM, the EC50 [2] is reported as greater than 1 µM and the EC50 [3] is reported as 0.1 µM. For the same compound, the EC50 [4] was 0.1 µM, the EC50 [5] was 0.6 µM and the EC50 [6] was greater than 1 µM. The EC50 [7] was greater than 1 µM, the EC50 [8] was 0.04 µM and the EC50 [9] was greater than 1 µM. It also gave an EC50 [10] of 0.4 µM.
In the case of CNC(=O)c1ccccc1Nc1nc(Nc2ccc(N3CCN(C(=O)CCOCCOCCOCCOCCNC(=O)CCc4ccc5n4[B-](F)(F)[N+]4=C(c6ccc[nH]6)C=CC4=C5)CC3)cc2)ncc1Cl [Energy Transfer Probe 5, 2-((2-((4-(4-(1-amino-3,6,9,12-tetraoxapentadecan-15-oyl)piperazin-1-yl)phenyl)amino)-5-chloropyrimidin-4-yl)amino)-N-methylbenzamide-NanoBRET 590], the EC50 [11] is reported as 0.04 µM, the EC50 [12] is reported as greater than 1 µM and the EC50 [13] is reported as 0.1 µM. It also gave an EC50 [14] greater than 1 µM, an EC50 [15] of 0.3 µM and an EC50 [16] greater than 1 µM. It also gave an EC50 [17] of 0.4 µM, an EC50 [18] greater than 1 µM and an EC50 [19] of 0.3 µM. For the same compound, the EC50 [20] was greater than 1 µM, the EC50 [21] was greater than 1 µM and the EC50 [22] was 0.4 µM. For the same compound, the EC50 [23] was 0.3 µM, the EC50 [24] was greater than 1 µM and the EC50 [25] was 0.2 µM. For the same compound, the EC50 [26] was greater than 1 µM, the EC50 [27] was greater than 1 µM and the EC50 [28] was 0.3 µM. The EC50 [29] was 0.05 µM, the EC50 [30] was greater than 1 µM and the EC50 [31] was greater than 1 µM. The EC50 [32] was greater than 1 µM.
